In patent US7993822B2, “Aging biomarker” (Vlaams Interuniversitair Instituut Voor Biotechnologie VZW, priority 2004, dated 2011):

B1: Interferon-γ (protein, UniProt P01581 23-156, looked up)
Interferon gamma: QGTLIESLESLKNYFNSSSMDAMEGKSLLLDIWRNWQKDGNTKILESQIISFYLRLFEVLKDNQAISNNISVIESHLITNFFSNSKAKKDAFMSIAKFEVNNPQIQHKAVNELIRVIHQLSPESSLRKRKRSRC
notes: Interferon-γ co-treatment of CCl4 treated rats

How the values were obtained:
[1] = system: rat; assay: Serum N-glycan profile of rats treated with CCl4 and co-treated with Interferon-γ; format: in vivo, rat (Wistar)
Protocol: The glycoproteins were denatured by addition of at least 2 volumes RCM buffer (8 M urea, 360 mM Tris, pH 8.6, 3.2 mM EDTA) to each sample in a final volume of at least 50 μl, and the samples were then placed at 50° C. for 1 h. The N-linked glycans present on the serum proteins in 5 μl of serum were released after binding the protein to an Immobilon P-lined 96-well plate. They were then derivatized with APTS (Molecular Probes, Eugene, Calif., USA) and analyzed on an ABI 377A DNA sequencer (Applied Biosystems).
(§1) The repeated administration of CCl4 is widely employed as an animal model of human hepatic fibrosis/cirrhosis. In order to evaluate whether the sugar marker has high predictive values for the liver damage, we tested N-glycan profiling on the CCl4 treated, co-treated with INF-γ and control rat groups (Wistar). Take into account that N-glycosylation in animals is species-specific, we therefore profiled the N-linked glycan to get a fingerprinting in rat serum. […] N-glycan peaks of P1, P3, P5, P6, P7, P9 are consistent with that of human. However, four peaks (rP2, rP4, rP8 and rP10) are rat-specific N-linked sugars.

[2] = system: rat; assay: Biochemical assay in serum (ALAT, ASAT, TBil) of CCl4 exposed rats, with or without Interferon-γ co-treatment; format: in vivo, rat (Wistar)
Excerpt: as §1
Moreover, the rat serum alanine aminotransferase activity (ALAT), aspartate aminotransferase activity (ASAT) and total bilirubin concentration (TBil) were analysed using routine photometric tests on a Hitachi 747 analyser (Boehringer Mannheim GmbH, Diagnostica) for subsequent assessment of hepatic injury and liver function, respectively.

[3] = rat, repeated administration of CCl4, Week 12, vs control group
[4] = CCl4 treated rat co-treated with INF-γ, Week 12, vs CCl4 group

Row | Molecule | trends of six serum N-glycan peaks ([1]; CCl4 treated rat group compared to control group) | N-glycan profile between CCl4 group and control group ([1]; rat, Week 9, peaks P4 and P5 even in Week 6) | serum alanine aminotransferase activity (ALAT) [2, 3] | serum aspartate aminotransferase activity (ASAT) [2, 3] | total bilirubin concentration (TBil) [2, 3] | changes of serum N-glycan peaks ([1]; INF-γ co-treated group compared to CCl4 group) | liver damage caused by CCl4 treatment ([2]; CCl4 treated rat co-treated with INF-γ, Week 12) | serum ALAT level [2, 4] | serum ASAT level [2, 4] | serum bilirubin level [2, 4]
1 | ClC(Cl)(Cl)Cl [CCl4] | either increased or decreased | different trends | significantly raised | significantly raised | significantly raised |  |  |  |  | 
2 | B1 |  |  |  |  |  | less slop changes than CCl4-group | partially protected | decreasing levels | decreasing levels | decreasing levels
